US12257287B2, “Glucagon-derived peptide and use thereof” (Tianjin Institute of Pharmaceutical Research Co., Ltd., priority 2018, dated 2025)
Values after ≈ are worked out from the molar mass of the structure shown. Numbered stars: 1 amine (or outer) side, 2 acyl side, 3 side chain; on linkers, the order of the positions; unused ones are H or OH. Square brackets hold non-standard residues; d marks the D form. Side chains are listed from the residue outwards. Peptide text beside a SMILES is read from it. * marks the point of attachment. C20 diacid = O=C(O)CCCCCCCCCCCCCCCCCCC(=O)*; C18 diacid = O=C(O)CCCCCCCCCCCCCCCCC(=O)*; γGlu = O=C(O)[C@H](CCC(=O)[*:2])N[*:1]; AEEA = NCCOCCOCC(=O)O; Aib = CC(C)(N)C(=O)O

Tests used:
human GLP-1 receptor = target: T1, human GLP-1 receptor (Homo sapiens, UniProt P43220); test: GLP-1 receptor mediated cAMP production in vitro; format: cell-based; details: cells transfected with human GLP-1 receptor, 20 min at 37° C., read-out: GLP-1R (nM EC50)
T1 construct: expressed in transfected cells; host or cells: Chinese guinea pig lung cells [sic]
T1 sequence (P43220 24-463): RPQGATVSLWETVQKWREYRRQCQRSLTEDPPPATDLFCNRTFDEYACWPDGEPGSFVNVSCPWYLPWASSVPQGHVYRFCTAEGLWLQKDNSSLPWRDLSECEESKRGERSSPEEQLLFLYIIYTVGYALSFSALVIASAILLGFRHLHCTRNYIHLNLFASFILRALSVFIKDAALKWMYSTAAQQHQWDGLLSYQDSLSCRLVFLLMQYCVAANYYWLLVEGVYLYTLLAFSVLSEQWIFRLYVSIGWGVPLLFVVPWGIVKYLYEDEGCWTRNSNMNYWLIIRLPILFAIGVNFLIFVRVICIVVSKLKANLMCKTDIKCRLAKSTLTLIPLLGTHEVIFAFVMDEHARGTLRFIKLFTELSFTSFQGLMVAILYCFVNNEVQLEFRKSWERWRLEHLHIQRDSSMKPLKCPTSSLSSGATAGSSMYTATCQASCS
Text: (§1) The medium was removed, the cells were lysed, and cAMP values were detected referring to the detection method described for the assay kit.

GC receptor = target: T2, GC receptor (Homo sapiens, UniProt P47871); test: GC receptor mediated cAMP production in vitro (HEK293 cells transfected with GC receptor); format: cell-based; details: 20 min at 37° C., read-out: GCGR (nM EC50)
T2 construct: expressed in transfected cells; host or cells: HEK293 cells
T2 sequence (P47871 26-477): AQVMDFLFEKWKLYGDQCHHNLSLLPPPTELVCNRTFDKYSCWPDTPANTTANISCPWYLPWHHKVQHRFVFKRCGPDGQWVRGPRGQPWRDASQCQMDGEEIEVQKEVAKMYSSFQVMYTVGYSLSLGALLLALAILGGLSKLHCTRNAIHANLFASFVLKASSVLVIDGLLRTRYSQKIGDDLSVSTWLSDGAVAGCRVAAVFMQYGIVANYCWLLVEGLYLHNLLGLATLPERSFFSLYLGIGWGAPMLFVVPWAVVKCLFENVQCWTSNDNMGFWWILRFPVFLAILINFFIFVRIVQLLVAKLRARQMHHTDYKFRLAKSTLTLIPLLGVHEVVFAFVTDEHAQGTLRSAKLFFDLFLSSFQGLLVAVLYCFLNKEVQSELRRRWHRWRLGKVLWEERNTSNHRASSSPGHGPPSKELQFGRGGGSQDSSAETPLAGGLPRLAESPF
Text: as §1

[1] = Effect on body weight of DIO mice after 14 days' administration; format: in vivo, C57BL/6J mice; details: DIO mice, 14 days, conclusions on Tables 3 and 5
How it was run: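 C57BL/6J mice on H10060 high-fat diet for 34 weeks (DIO; 45.0–52.0 g), 5 per group, dosed subcutaneously once daily for 14 days; controls received saline. Body weight change (%) = (initial − last-day weight)/initial weight; positive values mean loss.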

[2] = Glucose tolerance test in glucose-loaded DIO mice; format: in vivo; details: DIO mice, conclusions on Tables 4 and 6
How it was run: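 DIO mice fasted 16 h received compound subcutaneously; 1 h later, glucose 1 g/kg was given intraperitoneally. Blood glucose measured at 0.5, 1 and 1.5 h; AUC compared with model control group to give blood glucose inhibition rate (%).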

[3] = Short-term administration: food intake and body weight in DIO mice; format: in vivo; details: 30 nmol/kg once every 24 h, twice, − decrease; for Rate of change in food intake (%): at 48 hours vs day before administration; for Body weight change: at 48 hours
How it was run: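 DIO mice (mean body weight 52.5 g), 5 per group, dosed at 30 nmol/kg every 24 h for two doses, in 10 mM PBS pH 7.4; controls received solvent. Food intake and body weight at 48 h expressed as change rate versus the day before dosing.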

physchem = format: physicochemical
[4] = Accelerated chemical stability in injection solvent system (HPLC-UV); format: physicochemical; details: 14 days, phosphate buffer pH 7.3 with Tween 80 and phenol, main peak area vs day 0
How it was run: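 Compound dissolved in 10 mM pH 8.5 sodium hydrogen phosphate buffer, adjusted to pH 7.3, with Tween 80 and phenol added. Solutions stored 14 days at 10 °C and 37 °C; HPLC-UV main-peak area by normalisation compared against day 0.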

[5] = pH 7.5, Solubility, pH 7.5, 10 mM phosphate buffer
[6] = pH 7.5, Solubility, pH 7.5, 20 mM phosphate buffer
[7] = pH 8, Solubility, pH 8.0, 10 mM phosphate buffer
[8] = pH 8, Solubility, pH 8.0, 20 mM phosphate buffer
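For Solubility in this document: compound added at 2 mg per mL of phosphate buffer, with the dissolved amount determined in the supernatant.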

EC50 (human GLP-1 receptor)	EC50 (GC receptor)	solubility (physchem; [5])	solubility (physchem; [6])	solubility (physchem; [7])	solubility (physchem; [8])	Change in purity % (10° C.) [4]	Change in purity % (37° C.) [4]	Structure (SMILES)	body weight reduction (in words) [1]	glucose tolerance / blood glucose lowering (in words) [2]	Rate of change in food intake (%) [3]	Body weight change [3]
0.044 nM	0.036 nM	1840 µg/mL (≈ 416 µM)	1170 µg/mL (≈ 264 µM)	> 2000 µg/mL	> 2000 µg/mL	−0.6%	−3.1%	CC[C@H](C)[C@H](NC(=O)[C@H](Cc1ccccc1)NC(=O)[C@H](CCC(=O)O)NC(=O)[C@H](CCCCN)NC(=O)[C@H](C)NC(=O)[C@H](C)NC(=O)[C@H](CCCNC(=N)N)NC(=O)[C@H](CCC(=O)O)NC(=O)[C@H](CCC(=O)O)NC(=O)[C@H](CC(C)C)NC(=O)[C@H](Cc1ccc(O)cc1)NC(=O)[C@H](CCCCN)NC(=O)[C@H](CO)NC(=O)[C@H](CCCCNC(=O)COCCOCCNC(=O)COCCOCCNC(=O)CC[C@H](NC(=O)CCCCCCCCCCCCCCCCCCC(=O)O)C(=O)O)NC(=O)[C@H](CC(=O)O)NC(=O)[C@H](CO)NC(=O)[C@@H](NC(=O)[C@H](Cc1ccccc1)NC(=O)[C@@H](NC(=O)CNC(=O)[C@H](CCC(N)=O)NC(=O)C(C)(C)NC(=O)[C@@H](N)Cc1c[nH]cn1)[C@@H](C)O)[C@@H](C)O)C(=O)N[C@@H](C)C(=O)N[C@@H](Cc1c[nH]c2ccccc12)C(=O)N[C@@H](CC(C)C)C(=O)N[C@@H](CCC(=O)O)C(=O)N[C@@H](C)C(=O)NCC(=O)NCC(=O)N1CCC[C@H]1C(=O)N[C@@H](CO)C(=O)N[C@@H](CO)C(=O)NCC(N)=O [Compound 35] (H-H[Aib]QGTFTSDK([AEEA-AEEA-γGlu-C20 diacid])SKYLEERAAKEFIAWLEAGGPSSG-NH2; N-terminus assumed)	significantly reduced body weight	significantly improved glucose tolerance	−59%	-3.2 g
0.051 nM	0.058 nM	1490 µg/mL (≈ 334 µM)	1420 µg/mL (≈ 318 µM)	> 2000 µg/mL	1880 µg/mL (≈ 421 µM)	−2.7%	−5.1%	CC[C@H](C)[C@H](NC(=O)[C@H](Cc1ccccc1)NC(=O)[C@H](CCC(=O)O)NC(=O)[C@H](CCCCNC(=O)COCCOCCNC(=O)COCCOCCNC(=O)CC[C@H](NC(=O)CCCCCCCCCCCCCCCCC(=O)O)C(=O)O)NC(=O)[C@H](C)NC(=O)[C@H](CCCCN)NC(=O)[C@H](CCCNC(=N)N)NC(=O)[C@H](CCC(=O)O)NC(=O)[C@H](CC(=O)O)NC(=O)[C@H](CC(C)C)NC(=O)[C@H](Cc1ccc(O)cc1)NC(=O)[C@H](CCCCN)NC(=O)[C@H](CO)NC(=O)[C@H](Cc1ccc(O)cc1)NC(=O)[C@H](CC(=O)O)NC(=O)[C@H](CO)NC(=O)[C@@H](NC(=O)[C@H](Cc1ccccc1)NC(=O)[C@@H](NC(=O)CNC(=O)[C@H](CCC(N)=O)NC(=O)C(C)(C)NC(=O)[C@@H](N)Cc1c[nH]cn1)[C@@H](C)O)[C@@H](C)O)C(=O)N[C@@H](CCC(=O)O)C(=O)N[C@@H](Cc1c[nH]c2ccccc12)C(=O)N[C@@H](CC(C)C)C(=O)N[C@@H](CCC(=O)O)C(=O)NCC(=O)NCC(=O)N1CCC[C@H]1C(=O)N[C@@H](CO)C(=O)N[C@@H](CO)C(=O)NCC(N)=O [Compound 66] (H-H[Aib]QGTFTSDYSKYLDERKAK([AEEA-AEEA-γGlu-C18 diacid])EFIEWLEGGPSSG-NH2; N-terminus assumed)	significantly reduced body weight	significantly improved glucose tolerance	−56%	-1.7 g
